One experiment has as its target T1, JAK2 (Homo sapiens, UniProt O60674).
T1 construct: Recombinant human JAK2 catalytic domain (amino acids 808-1132; catalog number PV4210) was purchased from Invitrogen; purchased Invitrogen PV4210
Kind of experiment: JAK2 Ki determination assay (kinase tracer binding). The conditions noted are these: kinase tracer 236 binding; read-out: Ki against JAK2. How it is done:
JAK2 (Invitrogen, PV4210) was used at a final concentration of 5 nM. The binding experiment was performed in 50 mM Hepes pH 7.5, 0.01% Brij-35, 10 mM MgCl2, 1 mM EGTA using 25 nM kinase tracer 236 (Invitrogen, PV5592) and 2 nM Eu-anti-GST (Invitrogen, PV5594) with varying compound concentrations. Detection of tracer was performed according to the manufacturer's procedure.

Experiment [1] has as its target T2, Recombinant human JAK3 catalytic domain (Homo sapiens, UniProt P52333).
T2 construct: Recombinant human JAK3 catalytic domain (amino acids 781-1124; catalog number PV3855) was purchased from Invitrogen; purchased Invitrogen PV3855
Kind of experiment: JAK3 inhibition assay (polyGT substrate). It counts as biochemical. How it is done:
Recombinant human JAK3 catalytic domain (amino acids 781-1124; catalog number PV3855) was purchased from Invitrogen. 0.5 ng JAK3 protein was incubated with 2.5 μg polyGT substrate (Sigma catalog number P0275) in kinase reaction buffer (25 mM Tris pH 7.5, 0.5 mM EGTA, 10 mM MgCl2, 2.5 mM DTT, 0.5 mM Na3VO4, 5 mM b-glycerolphosphate, 0.01% Triton X-100, 1 μM non-radioactive ATP, 0.25 μCi ^33P-gamma-ATP (GE Healthcare, catalog number AH9968) final concentrations) with or without 5 μL containing test compound or vehicle (DMSO, 1% final concentration), in a total volume of 25 μL, in a polypropylene 96-well plate (Greiner, V-bottom). After 45 min at 30° C., reactions were stopped by adding 25 μL/well of 150 mM phosphoric acid. […] 40 μL/well of Microscint-20 was added, the top of the plates was sealed and readout was performed using the Topcount (Perkin Elmer). Kinase activity was calculated by subtracting counts per min (cpm) obtained in the presence of a positive control inhibitor (10 μM staurosporine) from cpm obtained in the presence of vehicle. The ability of a test compound to inhibit this activity was determined as:
(§1) Percentage inhibition=((cpm determined for sample with test compound present−cpm determined for sample with positive control inhibitor) divided by (cpm determined in the presence of vehicle−cpm determined for sample with positive control inhibitor))*100. […]

In the next experiment the test system is CTLL2 cells. As to the kind of experiment: CTLL2 viability assay (IL2-dependent). The conditions noted are these: ATP content. It counts as cell-based. As to the method: The protocol describes the methods to analyse the activity of compounds on the ability to sustain the IL2-dependent viability of CTLL2
Negative control is a DMSO dilution, positive control at 10 μM. Final DMSO concentration is 0.1%.

The target in experiment [2] is T3, Recombinant human TYK2 catalytic domain (Homo sapiens, UniProt P29597).
T3 construct: Recombinant human TYK2 catalytic domain (amino acids 871-1187; catalog number 08-147) was purchased from Carna biosciences; purchased Carna Biosciences 08-147
T3 sequence (P29597 871-1187): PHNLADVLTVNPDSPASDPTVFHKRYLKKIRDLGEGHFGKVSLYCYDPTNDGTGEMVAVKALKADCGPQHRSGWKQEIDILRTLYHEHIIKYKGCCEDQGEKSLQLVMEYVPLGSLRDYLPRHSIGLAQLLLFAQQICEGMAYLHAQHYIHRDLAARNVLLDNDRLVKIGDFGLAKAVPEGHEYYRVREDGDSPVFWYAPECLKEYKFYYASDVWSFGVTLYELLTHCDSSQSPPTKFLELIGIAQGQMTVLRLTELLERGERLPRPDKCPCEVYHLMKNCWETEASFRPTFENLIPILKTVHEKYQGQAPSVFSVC
Kind of experiment: TYK2 inhibition assay (polyGT substrate). Type of experiment: biochemical. As to the method: Recombinant human TYK2 catalytic domain (amino acids 871-1187; catalog number 08-147) was purchased from Carna biosciences. 5 ng of TYK2 was incubated with 12.5 μg polyGT substrate (Sigma catalog number P0275) in kinase reaction buffer (25 mM Hepes pH 7.2, 50 mM NaCl, 0.5 mM EDTA, 1 mM DTT, 5 mM MnCl2, 10 mM MgCl2, 0.1% Brij-35, 0.1 μM non-radioactive ATP, 0.125 μCi ^33P-gamma-ATP (GE Healthcare, catalog number AH9968) final concentrations) with or without 5 μL containing test compound or vehicle (DMSO, 1% final concentration), in a total volume of 25 μL, in a polypropylene 96-well plate (Greiner, V-bottom). After 90 min at 30° C., reactions were stopped by adding 25 μL/well of 150 mM phosphoric acid. […] 40 ^μL/well of Microscint-20 was added, the top of the plates was sealed and readout was performed using the Topcount (Perkin Elmer). Kinase activity was calculated by subtracting counts per min (cpm) obtained in the presence of a positive control inhibitor (10 μM staurosporine) from cpm obtained in the presence of vehicle. The ability of a test compound to inhibit this activity was determined as:
as §1

Values joined by “and” are separate entries in the source; they are usually repeats but may differ in a detail not shown here. Equal values may be shown once.

T2 sequence (P52333 781-1124): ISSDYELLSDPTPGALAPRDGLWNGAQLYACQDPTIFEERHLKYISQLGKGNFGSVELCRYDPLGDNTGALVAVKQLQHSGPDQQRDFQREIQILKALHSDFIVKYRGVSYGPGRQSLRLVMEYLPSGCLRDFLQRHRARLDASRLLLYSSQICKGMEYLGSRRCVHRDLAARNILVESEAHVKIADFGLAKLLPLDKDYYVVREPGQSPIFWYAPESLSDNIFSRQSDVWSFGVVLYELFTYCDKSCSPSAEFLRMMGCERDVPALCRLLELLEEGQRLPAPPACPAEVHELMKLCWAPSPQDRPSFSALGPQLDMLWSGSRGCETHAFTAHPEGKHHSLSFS
T1 sequence (O60674 808-1132): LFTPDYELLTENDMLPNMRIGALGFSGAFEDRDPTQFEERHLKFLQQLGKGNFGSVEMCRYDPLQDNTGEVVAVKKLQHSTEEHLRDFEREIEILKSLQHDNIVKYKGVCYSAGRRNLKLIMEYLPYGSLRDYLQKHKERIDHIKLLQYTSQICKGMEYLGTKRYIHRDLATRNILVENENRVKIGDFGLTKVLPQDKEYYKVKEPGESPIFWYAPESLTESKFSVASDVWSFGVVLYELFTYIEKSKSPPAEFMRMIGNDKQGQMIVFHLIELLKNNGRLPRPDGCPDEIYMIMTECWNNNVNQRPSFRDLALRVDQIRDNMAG

As for `CCc1cc(C2=CCN(C(=O)CC#N)CC2)ccc1N(C)c1cc2c(cn1)ncn2C` [Compound 1], the Ki at JAK2 came to 25.1 nM. Further, the “JAK1 selectivity vs JAK3” value in experiment [1] is given as 30 fold. The IC50 in experiment [1] (polyGT substrate, 1 μM ATP, individual determinations, read-out: IC50 against JAK3) is 160 nM and 65.2 nM and 142 nM and 66.9 nM and 30.9 nM and 32.8 nM and 38 nM and 66.6 nM; in the experiment on CTLL2 cells (24 h, listed as compound of the invention), 2440 nM; in the experiment with CTLL2 cells (Mus musculus, CTLL-2, 24 h) it was 1810 nM. For the same molecule, the “JAK1 selectivity vs TYK2” value in experiment [2] is given as 9 fold.

One may read the Ki as the equilibrium dissociation constant of an inhibitor or competing ligand from its target. A word on the IC50: it is the midpoint of a concentration-inhibition curve.
